Experimental findings from patent EP3131902B1, “COMPOUNDS AS MODULATORS OF ROR GAMMA” (Boehringer Ingelheim International GmbH, priority 2014, dated 2015) are described below.

The target in the first test is T1, RORγ (Homo sapiens, UniProt P51449).
T1 construct: expressed in transfected cells; host or cells: HEK 293 cells, transiently transfected
T1 sequence (P51449 269-508 limits assumed): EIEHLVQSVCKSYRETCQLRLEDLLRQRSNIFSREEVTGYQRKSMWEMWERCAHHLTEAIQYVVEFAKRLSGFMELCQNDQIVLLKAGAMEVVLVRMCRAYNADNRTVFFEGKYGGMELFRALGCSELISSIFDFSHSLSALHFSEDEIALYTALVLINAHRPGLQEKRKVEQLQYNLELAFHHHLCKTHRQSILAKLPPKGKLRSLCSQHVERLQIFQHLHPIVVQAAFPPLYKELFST
In words: Reporter Gene Assay (RGA): nuclear receptor transactivation assay, inhibition of RORγ transactivation of a luciferase reporter in transiently transfected HEK 293 cells. Type of test: cell-based.
Conditions: not given
For orientation: A reporter such as luciferase makes a cellular process visible.
Usually IC50 stands for the concentration at which inhibition is half-maximal. As to `CCS(=O)(=O)c1ccc(CNc2nc3cnc(-c4c(C)ncnc4C4CC4)nc3n([C@@H](C)C(F)(F)F)c2=O)cc1` [Example 177], half-maximal inhibition (IC50) was put at 73 nM.

For the molecule `CCS(=O)(=O)c1ccc(CNc2nc3cnc(-c4c(OC)ncnc4C4CC4)nc3n(CC(C)(C)F)c2=O)nc1` [Example 106], inhibition was half-maximal at 1150 nM (IC50).

The test is the same for the next values; noted with them: read-out: RGA IC50.
Take `COCCS(=O)(=O)N1CCC(CNc2nc3cnc(-c4c(OC)ncnc4C4CC4)nc3n([C@@H](C)C3CC3)c2=O)CC1` [Example 169]: the IC50 was found to be 145 nM. As to `CC[C@@H](C)n1c(=O)c(NCc2ccc(S(C)(=O)=O)cc2)nc2cnc(-c3c(OC)ncnc3C3CC3)nc21` [Example 190], the IC50 came out at 130 nM. The same measure, in the same setting: the figure for `CCS(=O)(=O)c1ccc(CNc2nc3cnc(-c4c(C5CC5)ncnc4C4CC4)nc3n([C@H](C)C(C)C)c2=O)nc1` [Example 25] is 410 nM; for `Cc1ncnc(C2CC2)c1-c1ncc2nc(NCc3ccc4c(c3)CCS4(=O)=O)c(=O)n([C@@H](C)C3CC3)c2n1` [Example 212] it is 120 nM; for `Cc1ncnc(C2CC2)c1-c1ncc2nc(NCC3CCN(S(=O)(=O)CC#N)CC3)c(=O)n([C@@H](C)C3CC3)c2n1` [Example 165] it is 157 nM. As to `CCC(C)n1c(=O)c(NCc2ccc(S(C)(=O)=O)cc2)nc2cnc(-c3c(OC)ncnc3C3CC3)nc21` (stereo not drawn) [Example 26], the IC50 was found to be 420 nM.

Turning to `CCS(=O)(=O)c1cnc(CNc2nc3cnc(-c4c(C)ncnc4C4CC4)nc3n([C@@H](C)C(F)(F)F)c2=O)nc1` [Example 188], the IC50 turned out to be 315 nM. Consider `CC[C@@H](C)n1c(=O)c(NCc2ccc(S(=O)(=O)CC)cn2)nc2cnc(-c3c(C)ncnc3C3CC3)nc21` [Example 84], for which the IC50 amounted to 400 nM. As to `CCS(=O)(=O)c1ccc(CNc2nc3cnc(-c4c(OC)ncnc4C4CC4)nc3n([C@H]3CCC[C@@H]3C#N)c2=O)nc1` [Example 109], the IC50 is 790 nM. As for `CCC(C)n1c(=O)c(NCc2ccc(S(C)(=O)=O)cc2)nc2cnc(-c3c(C)ncnc3C3CC3)nc21` (stereo not drawn) [Example 14], the IC50 was determined as 310 nM. Same read-out and setting: the figure for `CC[C@@H](C)n1c(=O)c(NCc2ccc(S(C)(=O)=O)cc2)nc2cnc(-c3c(C)ncnc3C3CC3)nc21` [Example 189] is 120 nM.

For the molecule `CC[C@H](C)n1c(=O)c(NCc2ccc(S(N)(=O)=O)cn2)nc2cnc(-c3c(C)ncnc3C3CC3)nc21` [Example 98], the IC50 was 195 nM. In the case of `Cc1ncnc(C2CC2)c1-c1ncc2nc(NCc3ccc(S(=O)(=O)CC#N)cc3)c(=O)n(C(C)C)c2n1` [Example 171], the IC50 worked out at 200 nM.

As for `CCS(=O)(=O)c1ccc(CNc2nc3cnc(-c4c(C5CC5)ncnc4C4CC4)nc3n([C@H]3CCOC3)c2=O)cc1` [Example 174], the IC50 was found to be 275 nM. Still for that read-out and setting: in the case of `CC[C@@H](C)n1c(=O)c(NCc2ccc(S(N)(=O)=O)cn2)nc2cnc(-c3c(OC)ncnc3C3CC3)nc21` [Example 236] it was 185 nM. In the case of `CCS(=O)(=O)c1ccc(CNc2nc3cnc(-c4c(C)ncnc4C4CC4)nc3n(C3CCCC3=O)c2=O)nc1` (stereo not drawn) [Example 119], the IC50 was 720 nM. The same measure, in the same setting: in the case of `CNS(=O)(=O)c1ccc(CNc2nc3cnc(-c4c(C)ncnc4C4CC4)nc3n([C@@H](C)C3CC3)c2=O)cc1` [Example 135] it was 240 nM; in that of `CCS(=O)(=O)c1ccc(CNc2nc3cnc(-c4c(OC)ncnc4C4CC4)nc3n([C@H]3C[C@@H]3C(F)(F)F)c2=O)nc1` (stereo in doubt) [Example 110], 1350 nM; in that of `COc1ncnc(C2CC2)c1-c1ncc2nc(NCc3ccc(S(C)(=O)=O)cn3)c(=O)n(C(C)C)c2n1` [Example 149], 305 nM.

Take `CCC(CC)n1c(=O)c(NCc2ccc(S(=O)(=O)CC)cn2)nc2cnc(-c3c(C4CC4)ncnc3C3CC3)nc21` [Example 16]: the IC50 amounted to 320 nM. Same read-out and setting: in the case of `CCS(=O)(=O)N1CCC(CNc2nc3cnc(-c4c(C)ncnc4C4CC4)nc3n(C(C)C)c2=O)CC1` [Example 130] it was 285 nM. Still for that read-out and setting: in the case of `CNS(=O)(=O)c1ccc(CNc2nc3cnc(-c4c(OC)ncnc4C4CC4)nc3n(C(C)C)c2=O)nc1` [Example 155] it was 185 nM.
